Laboratory results taken from ChEMBL document CHEMBL5678802, “Small-molecule p21-activated kinase inhibitor PF-3758309 is a potent inhibitor of oncogenic signaling and tumor growth” (Proc Natl Acad Sci U S A, 2010).
The source made the active and inactive calls. No cut-off for these calls is given here.

Experiments:
HCT-116 [1] = experiment: Effect on phosphorylated GEF-H1 level in human HCT-116 cells at 1 uM incubated for 15 mins by Western blot analysis; format: functional, cell-based
HCT-116 [2] = experiment: Effect on phosphorylated PAK4 level in human HCT-116 cells at 1 uM incubated for 15 mins by Western blot analysis; format: functional, cell-based
[3] = biological target: T1, Serine/threonine-protein kinase PAK 4 (Homo sapiens, UniProt O96013); experiment: Inhibition of PAK4 Kinase domain (291 to 591 residues) (unknown origin) transfected in TR-293-KDG cells using GEFH1 as substrate assessed as inhibition of PAK4-dependent phosphorylation of GEFH1 at S810 residue incubated for 3 hrs by ELISA; format: cell-based
[4] = biological target: T1, Serine/threonine-protein kinase PAK 4; experiment: Inhibition of N-terminal 6His-tagged human recombinant PAK4 kinase domain (300 to 591 residues) using EVPRRKSLVGTPYWM peptide as substrate assessed as inhibition constant in presence of ATP by biochemical assay

T1 sequence (O96013 whole entry, the tested form may be a part): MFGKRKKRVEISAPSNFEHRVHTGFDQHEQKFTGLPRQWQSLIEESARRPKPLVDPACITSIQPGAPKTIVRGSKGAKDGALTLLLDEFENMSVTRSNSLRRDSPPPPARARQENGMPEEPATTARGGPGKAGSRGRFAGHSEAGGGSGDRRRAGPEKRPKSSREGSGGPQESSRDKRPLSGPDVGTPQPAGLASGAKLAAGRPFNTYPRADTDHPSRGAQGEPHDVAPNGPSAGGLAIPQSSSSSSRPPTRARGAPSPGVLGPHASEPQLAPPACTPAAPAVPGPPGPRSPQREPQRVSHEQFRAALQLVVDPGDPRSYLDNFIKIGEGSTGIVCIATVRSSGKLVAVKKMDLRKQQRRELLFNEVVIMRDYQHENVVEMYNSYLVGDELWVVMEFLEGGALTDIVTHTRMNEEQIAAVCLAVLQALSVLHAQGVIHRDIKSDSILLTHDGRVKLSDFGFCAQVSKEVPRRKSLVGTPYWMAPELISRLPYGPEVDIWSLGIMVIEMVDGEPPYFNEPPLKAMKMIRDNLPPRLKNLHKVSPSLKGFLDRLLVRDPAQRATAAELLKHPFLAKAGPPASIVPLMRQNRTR

| Compound | Activity (HCT-116 [1]) | inhibition (HCT-116 [2]) | IC50 [3] [µM] | Ki [4] [µM] |
| --- | --- | --- | --- | --- |
| COc1ccc(C2=NC(c3ccc(Cl)cc3)C(c3ccc(Cl)cc3)N2C(=O)N2CCNC(=O)C2)c(OC(C)C)c1 (centres undefined) | inactive | inactive |  |  |
| C[C@@H]1CN(C(=O)N2Cc3c(NC(=O)c4ccccn4)n[nH]c3C2(C)C)[C@@H](C)CN1CC1CCOCC1 |  |  | 10 | 52 |
